These results are taken from ChEMBL document CHEMBL5537135, “Novel antimicrobial peptides modified with fluorinated sulfono-γ-AA having high stability and targeting multidrug-resistant bacteria infections” (Eur J Med Chem, 2024).

Calls of active or inactive are those of the source. The calls are words filed in the database; no cut-off is given here. Numbered stars: 1 amine (or outer) side, 2 acyl side, 3 side chain; on linkers, the order of the positions; unused ones are H or OH. Square brackets hold non-standard residues; d marks the D form. Peptide text beside a SMILES is read from it. * marks the point of attachment. X3 = CC(C)C[C@@H](CN(CC(N)=O)S(=O)(=O)c1ccc(C(F)(F)F)cc1)N*; X2 = CC(C)C[C@H](N)CN(CC(=O)[*:2])[*:1]; X1 = O=S(=O)(c1ccc(C(F)(F)F)cc1)*

Series [1] has as its system Pseudomonas aeruginosa. Nature of the series: Synergistic antibacterial activity against multidrug-resistant Pseudomonas aeruginosa 124 assessed as fractional inhibitory concentration index in presence of polymyxin B by checkerboard assay. Format: functional.
For series [2], the system named is Staphylococcus aureus. The series can be described thus: Antibacterial activity against methicillin-resistant Staphylococcus aureus ATCC 33591 infected in full-thickness wound BALB/c mouse model assessed as reduction in inflammatory infiltration at 1 mg/kg, ip administered for 1 to 48 hrs and measured after 3 days. It is filed as functional, organism-based. As to conditions: time 1-120 hrs.

Series [3] in a line: Toxicity in mouse assessed as kidney lesion at 20 mg/kg, ip measured for 30 to 60 mins by H and E staining based analysis. As to conditions: in vivo, time 30-60 min. It is filed as organism-based.
A short description of series [4]: Toxicity in mouse assessed as spleen lesion at 20 mg/kg, ip measured for 30 to 60 mins by H and E staining based analysis. Format: organism-based. To be noted: in vivo, time 30-60 min.
For series [5], the system named is Cell membrane. The series can be described thus: Induction of membrane depolarization in methicillin-resistant Staphylococcus aureus ATCC 33591 assessed as increase in fluorescence intensity by DiSC35 dye-based fluorescence assay. It is filed as cell membranes.
Series [6] has as its system Cell membrane. The series can be described thus: Induction of membrane disruption in Staphylococcus aureus ATCC 33591 assessed as membrane lysis at 2 to 4 times MIC incubated for 24 hrs by SEM analysis. Format: cell membranes.
The subject of series [7] is Pseudomonas aeruginosa. The series can be described thus: Additive antibacterial activity against multidrug-resistant Pseudomonas aeruginosa 124 assessed as fractional inhibitory concentration index in presence of polymyxin B by checkerboard assay. Format: functional.
The subject of series [8] is Staphylococcus aureus. The series can be described thus: Antibacterial activity against methicillin-resistant Staphylococcus aureus ATCC 33591 infected in full-thickness wound BALB/c mouse model at 0.25 to 1 mg/kg, ip administered for 1 to 48 hrs and measured after 3 days. It is filed as functional, organism-based. As to conditions: dose 0.25-1 mg/kg, time 1-120 hrs.

Series [9] in a line: Toxicity in mouse assessed as heart lesion at 20 mg/kg, ip measured for 30 to 60 mins by H and E staining based analysis. It is filed as organism-based. As to conditions: in vivo, time 30-60 min.
The nature of series [10]: Toxicity in mouse assessed as animal survival at 20 mg/kg, ip measured for 7 days. It is filed as organism-based. To be noted: in vivo, 168 h, time 7 day.
The test system of series [11] is Staphylococcus aureus. Nature of the series: Antibacterial activity against methicillin-resistant Staphylococcus aureus ATCC 33591 infected in full-thickness wound BALB/c mouse model assessed as reduction in IL-6 level in skin at 0.25 to 1 mg/kg, ip administered for 1 to 48 hrs and measured after 3 days. Format: functional, organism-based. As to conditions: dose 0.25-1 mg/kg, time 1-120 hrs.

Series [12] has as its system Pseudomonas aeruginosa. The series can be described thus: Antibacterial activity against Pseudomonas aeruginosa ATCC 27853 infected in C57BL/6 mouse pneumonia model assessed as decrease in IL-1beta level in lung at 2.5 to 10 mg/kg, ip administered for 1 to 48 hrs and measured after 3 days. It is filed as functional, organism-based. To be noted: dose 2.5-10 mg/kg, time 1-120 hrs.

Series [13] deals with Pseudomonas aeruginosa. Nature of the series: Antibacterial activity against Pseudomonas aeruginosa ATCC 27853 infected in C57BL/6 mouse pneumonia model assessed as reduction in bacterial load in lung at 10 mg/kg, ip administered for 1 to 48 hrs and measured after 3 days. Format: functional, organism-based. To be noted: time 1-120 hrs.
Series [14] in a line: Toxicity in mouse assessed as lung lesion at 20 mg/kg, ip measured for 30 to 60 mins by H and E staining based analysis. Format: organism-based. As to conditions: in vivo, time 30-60 min.
The test system of series [15] is Pseudomonas aeruginosa. Nature of the series: Antibacterial activity against Pseudomonas aeruginosa ATCC 27853 infected in C57BL/6 mouse pneumonia model assessed as decrease in IL-6 level in lung at 2.5 to 10 mg/kg, ip administered for 1 to 48 hrs and measured after 3 days. It is filed as functional, organism-based. To be noted: dose 2.5-10 mg/kg, time 1-120 hrs.

The subject of series [16] is Pseudomonas aeruginosa. Nature of the series: Bactericidal activity against Pseudomonas aeruginosa ATCC 27853 assessed as reduction in viable bacteria at 4 times MIC measured for 1 min by time-kill assay. It is filed as functional, organism-based.
Series [17] concerns Cell membrane. Nature of the series: Induction of membrane disruption in Staphylococcus aureus ATCC 33591 assessed as membrane shrinkage at 2 to 4 times MIC incubated for 24 hrs by SEM analysis. Format: cell membranes.
Series [18] deals with Pseudomonas aeruginosa. Nature of the series: Additive antibacterial activity against multidrug-resistant Pseudomonas aeruginosa 124 assessed as fractional inhibitory concentration index in presence of ceftazidime by checkerboard assay. Format: functional.
The nature of series [19]: Toxicity in mouse assessed as skin injury at 40 mg/kg, sc measured for 5 to 1440 mins by H and E staining analysis. It is filed as organism-based. As to conditions: in vivo, time 5-1440 min.
For series [20], the system named is Staphylococcus aureus. Nature of the series: Antibacterial activity against methicillin-resistant Staphylococcus aureus ATCC 33591 infected in full-thickness wound BALB/c mouse model assessed as wound healing at 0.25 to 1 mg/kg, ip administered for 1 to 48 hrs and measured after 10 days. Format: functional, organism-based. As to conditions: dose 0.25-1 mg/kg, time 1-288 hrs.

The test system of series [21] is Cell membrane. Nature of the series: Induction of membrane disruption in Pseudomonas aeruginosa ATCC 27853 assessed as membrane shrinkage at 2 to 4 times MIC incubated for 24 hrs by SEM analysis. Format: cell membranes.
Series [22] can be described thus: Toxicity in mouse assessed as liver lesion at 20 mg/kg, ip measured for 30 to 60 mins by H and E staining based analysis. Format: organism-based. To be noted: in vivo, time 30-60 min.

Regarding `CC(C)C[C@@H](CN(CC(N)=O)S(=O)(=O)c1ccc(C(F)(F)F)cc1)NC(=O)[C@H](CCCCN)NC(=O)[C@H](CCCCN)NC(=O)[C@H](CC(C)C)NC(=O)[C@H](CC(C)C)NC(=O)[C@H](CCCCN)NC(=O)[C@H](CC(C)C)NC(=O)[C@@H](N)Cc1ccccc1` (H-FLKLLKK-X3), the “fractional inhibitory concentration index (FICI)” value in the series on Pseudomonas aeruginosa [1] worked out at 0.75.

Consider `CC(C)C[C@H](N)CN(CC(=O)N[C@@H](CCCCN)C(=O)N[C@@H](CC(C)C)C(=O)N[C@@H](CC(C)C)C(=O)N[C@@H](CCCCN)C(=O)N[C@@H](CCCCN)C(=O)N[C@@H](CC(C)C)C(=O)N[C@@H](CC(C)C)C(N)=O)S(=O)(=O)c1ccc(C(F)(F)F)cc1` (X1-[X2]KLLKKLL-NH2), for which the outcome in the series with Staphylococcus aureus [2], in the series with Cell membrane [6], with Staphylococcus aureus [8], in the series with Staphylococcus aureus [11], with Pseudomonas aeruginosa [12] and in the series on Pseudomonas aeruginosa [13] was Active. Also, the result in the series on Pseudomonas aeruginosa [15], in the series on Pseudomonas aeruginosa [16], in the series on Cell membrane [17], with Staphylococcus aureus [20] and with Cell membrane [21] was Active. The Activity entry is “Non-Toxic” in [3]; “Non-Toxic” in [4]; “Dose-Dependent Effect” in the series on Cell membrane [5]; “Non-Toxic” in [9]; “Non-Toxic” in series [10]; “Non-Toxic” in series [14]. Further, the Activity result in [19] and in series [22] was “Non-Toxic” each time. Moreover, the “fractional inhibitory concentration index (FICI)” value in the series with Pseudomonas aeruginosa [7] amounted to 0.5; with Pseudomonas aeruginosa [18], 1.
